# Source: PMC5574958, “Radiosynthesis and Preclinical Evaluation of [^18F]F-DPA, A Novel Pyrazolo[1,5a]pyrimidine Acetamide TSPO Radioligand, in Healthy Sprague Dawley Rats” (Molecular Imaging and Biology, 2017)
# pKi: −log10 of the molar value.
# Tests used:
# CBR = conditions: read-out: K i CBR (selectivity); cited from earlier work
# TSPO = conditions: read-out: K i (TSPO affinity); cited from earlier work
# [1] = RadioTLC analyses of radiometabolites in plasma and brain homogenates; type: in vivo, Sprague Dawley rats; conditions: 90 min after injection, n = 3
# Method: The blood samples were taken into Li-heparin tubes and centrifuged (3000×g, 10 min). The plasma was transferred to an Eppendorf tube and the plasma proteins were precipitated by addition of 1.5 parts of MeOH by volume. Following a further centrifugation (12,000×g, 4 min), 20 μl of the supernatant was spotted onto an aluminum-backed silica gel 60/Kieselguhr F254 TLC plate (EMD Millipore 1.05567.0001, Merck Millipore, Darmstadt, Germany).
# Brain samples from the cortex were homogenized with approximately 200 μl of 1:1 v/v of MeOH and water; the mixture was transferred to an Eppendorf tube and centrifuged (12,000×g, 4 min). An aliquot (20 μl) of the supernatant was spotted onto the TLC plate.
# The TLC plates were developed with a mixture of dichloromethane and methanol (9:1, v/v) for a distance of 6 cm. Following this, the plates were exposed onto an imaging plate (Fuji BAS Imaging Plate TR2025, Fuji Photo Film Co., Ltd., Tokyo, Japan) for approximately two half-lives of fluorine-18 (3.5 to 4 h). After the exposure, the imaging plates were scanned using a BAS-5000 reader (Fuji, Japan) with a resolution of 50 μm and the saved images were analyzed using TINA software (version 2.10 g, Raytest, Isotopenmessgeräte, GmbH, Straubenhardt, Germany).
# Ex vivo biodistribution = type: in vivo, Sprague Dawley rats; conditions: for Uptake of fluorine-18-radioactivity, Harderian gland / Uptake of fluorine-18-radioactivity, Brain / Uptake of fluorine-18-radioactivity, Brown fat / Uptake of fluorine-18-radioactivity, Eye x2 / Uptake of fluorine-18-radioactivity, Injection site (tail) / Uptake of fluorine-18-radioactivity, Large int. Wall + contents / Uptake of fluorine-18-radioactivity, Liver / Uptake of fluorine-18-radioactivity, Lung / Uptake of fluorine-18-radioactivity, Muscle / Uptake of fluorine-18-radioactivity, Salivary x2 / Uptake of fluorine-18-radioactivity, Small int. wall + contents / Uptake of fluorine-18-radioactivity, Stomach wall + contents / Uptake of fluorine-18-radioactivity, Testis: mean, n = 3
# Method: After sacrifice (5, 15, 30, 60, and 90 min after injection, n = 3, for every time point and radiotracer), the blood was collected into Li-heparin tubes and transcardial perfusion with saline was conducted rapidly in order to eliminate the blood from the whole body. Following this, the organs of the animals were collected, individually weighed, and the radioactivity was measured using a gamma counter (Wizard^2 3 × 3″, PerkinElmer, Turku, Finland). The decay-corrected radioactivity is reported as percentage of injected dose per gram (%ID/g).
# [2] = Plasma protein binding (ultrafiltration of plasma after tracer injection); type: in vivo, Sprague Dawley rats; conditions: 15 min after injection, 30 kDa ultrafiltration, n = 3
# Method: After 15 min, the animals were sacrificed and the blood was collected into Li-heparin tubes and centrifuged (3000×g, 10 min). A 10-μl aliquot of the plasma was spotted onto a TLC plate; following this, the remaining plasma was filtered by ultrafiltration using Microsep 30K Omega (Pall Life Sciences, Mexico) with a cut-off of 30 kDa. A 10-μl aliquot of the resulting supernatant was also spotted onto the TLC plate. The plates were exposed onto an imaging plate (Fuji BAS Imaging Plate TR2025, Fuji Photo Film Co., Ltd., Tokyo, Japan) for approximately two half-lives of fluorine-18 (3.5 to 4 h). After the exposure, the imaging plates were scanned using a BAS-5000 reader (Fuji, Japan) with a resolution of 50 μm and the saved images were analyzed using TINA software (version 2.10 g, Raytest, Isotopenmessgeräte, GmbH, Straubenhardt, Germany).
smiles,measurement,setting,value
"CCN(CC)C(=O)Cc1c(-c2ccc(F)cc2)nn2c(C)cc(C)nc12 [F-DPA, N,N-Diethyl-2-(2-(4-fluorophenyl)-5,7-dimethylpyrazolo[1,5-a]pyrimidin-3-yl)acetamide]",pKi,CBR,< 6.00
same,pKi,TSPO,8.77
"CCN(CC)C(=O)Cc1c(-c2ccc(OCC[18F])cc2)nn2c(C)cc(C)nc12 [[^18F]DPA-714, reference compound]",pKi,CBR,< 6.00
same,"Unchanged radiotracer, share of radioactivity in the brain",[1]; brain homogenate,53.6 ± 1.6%
same,"Unchanged radiotracer, share of radioactivity in the plasma",[1]; plasma,11.1 ± 2.6%
same,"Uptake of fluorine-18-radioactivity, Harderian gland",Ex vivo biodistribution; 5 min after injection,0.40 %ID/g tissue
same,"Uptake of fluorine-18-radioactivity, Harderian gland",Ex vivo biodistribution; 15 min after injection,0.52 %ID/g tissue
same,"Uptake of fluorine-18-radioactivity, Harderian gland",Ex vivo biodistribution; 30 min after injection,0.45 %ID/g tissue
same,"Uptake of fluorine-18-radioactivity, Harderian gland",Ex vivo biodistribution; 60 min after injection,0.54 %ID/g tissue
same,"Uptake of fluorine-18-radioactivity, Harderian gland",Ex vivo biodistribution; 90 min after injection,0.43 %ID/g tissue
same,Accumulation of radioactivity in the bone (defluorination in vivo),"Ex vivo biodistribution; after the initial uptake at 5 min, up to 90 min",no significant accumulation of radioactivity in the bone
same,"Uptake of fluorine-18-radioactivity, Brain",Ex vivo biodistribution; 5 min after injection,0.29 %ID/g tissue
same,"Uptake of fluorine-18-radioactivity, Brain",Ex vivo biodistribution; 15 min after injection,0.17 %ID/g tissue
same,"Uptake of fluorine-18-radioactivity, Brain",Ex vivo biodistribution; 30 min after injection,0.12 %ID/g tissue
same,"Uptake of fluorine-18-radioactivity, Brain",Ex vivo biodistribution; 60 min after injection,0.09 %ID/g tissue
same,"Uptake of fluorine-18-radioactivity, Brain",Ex vivo biodistribution; 90 min after injection,0.08 %ID/g tissue
same,"Uptake of fluorine-18-radioactivity, Brown fat",Ex vivo biodistribution; 5 min after injection,0.22 %ID/g tissue
same,"Uptake of fluorine-18-radioactivity, Brown fat",Ex vivo biodistribution; 15 min after injection,0.31 %ID/g tissue
same,"Uptake of fluorine-18-radioactivity, Brown fat",Ex vivo biodistribution; 30 min after injection,0.51 %ID/g tissue
same,"Uptake of fluorine-18-radioactivity, Brown fat",Ex vivo biodistribution; 60 min after injection,1.07 %ID/g tissue
same,"Uptake of fluorine-18-radioactivity, Brown fat",Ex vivo biodistribution; 90 min after injection,1.25 %ID/g tissue
same,"Uptake of fluorine-18-radioactivity, Eye x2","Ex vivo biodistribution; eye x2, 5 min after injection",0.28 %ID/g tissue
same,"Uptake of fluorine-18-radioactivity, Eye x2","Ex vivo biodistribution; eye x2, 15 min after injection",0.29 %ID/g tissue
same,"Uptake of fluorine-18-radioactivity, Eye x2","Ex vivo biodistribution; eye x2, 30 min after injection",0.26 %ID/g tissue
same,"Uptake of fluorine-18-radioactivity, Eye x2","Ex vivo biodistribution; eye x2, 60 min after injection",0.22 %ID/g tissue
same,"Uptake of fluorine-18-radioactivity, Eye x2","Ex vivo biodistribution; eye x2, 90 min after injection",0.20 %ID/g tissue
same,"Uptake of fluorine-18-radioactivity, Injection site (tail)",Ex vivo biodistribution; 5 min after injection,0.49 %ID/g tissue
same,"Uptake of fluorine-18-radioactivity, Injection site (tail)",Ex vivo biodistribution; 15 min after injection,0.29 %ID/g tissue
same,"Uptake of fluorine-18-radioactivity, Injection site (tail)",Ex vivo biodistribution; 30 min after injection,0.34 %ID/g tissue
same,"Uptake of fluorine-18-radioactivity, Injection site (tail)",Ex vivo biodistribution; 60 min after injection,0.38 %ID/g tissue
same,"Uptake of fluorine-18-radioactivity, Injection site (tail)",Ex vivo biodistribution; 90 min after injection,0.24 %ID/g tissue
same,"Uptake of fluorine-18-radioactivity, Large int. Wall + contents",Ex vivo biodistribution; 5 min after injection,0.20 %ID/g tissue
same,"Uptake of fluorine-18-radioactivity, Large int. Wall + contents",Ex vivo biodistribution; 15 min after injection,0.24 %ID/g tissue
same,"Uptake of fluorine-18-radioactivity, Large int. Wall + contents",Ex vivo biodistribution; 30 min after injection,0.26 %ID/g tissue
same,"Uptake of fluorine-18-radioactivity, Large int. Wall + contents",Ex vivo biodistribution; 60 min after injection,0.41 %ID/g tissue
same,"Uptake of fluorine-18-radioactivity, Large int. Wall + contents",Ex vivo biodistribution; 90 min after injection,0.29 %ID/g tissue
same,"Uptake of fluorine-18-radioactivity, Liver",Ex vivo biodistribution; 5 min after injection,0.78 %ID/g tissue
same,"Uptake of fluorine-18-radioactivity, Liver",Ex vivo biodistribution; 15 min after injection,0.87 %ID/g tissue
same,"Uptake of fluorine-18-radioactivity, Liver",Ex vivo biodistribution; 30 min after injection,0.60 %ID/g tissue
same,"Uptake of fluorine-18-radioactivity, Liver",Ex vivo biodistribution; 60 min after injection,0.37 %ID/g tissue
same,"Uptake of fluorine-18-radioactivity, Liver",Ex vivo biodistribution; 90 min after injection,0.26 %ID/g tissue
same,"Uptake of fluorine-18-radioactivity, Lung",Ex vivo biodistribution; 5 min after injection,19.83 %ID/g tissue
same,"Uptake of fluorine-18-radioactivity, Lung",Ex vivo biodistribution; 15 min after injection,10.24 %ID/g tissue
same,"Uptake of fluorine-18-radioactivity, Lung",Ex vivo biodistribution; 30 min after injection,5.73 %ID/g tissue
same,"Uptake of fluorine-18-radioactivity, Lung",Ex vivo biodistribution; 60 min after injection,3.01 %ID/g tissue
same,"Uptake of fluorine-18-radioactivity, Lung",Ex vivo biodistribution; 90 min after injection,2.00 %ID/g tissue
same,"Uptake of fluorine-18-radioactivity, Muscle",Ex vivo biodistribution; 5 min after injection,0.07 %ID/g tissue
same,"Uptake of fluorine-18-radioactivity, Muscle",Ex vivo biodistribution; 15 min after injection,0.07 %ID/g tissue
same,"Uptake of fluorine-18-radioactivity, Muscle",Ex vivo biodistribution; 30 min after injection,0.11 %ID/g tissue
same,"Uptake of fluorine-18-radioactivity, Muscle",Ex vivo biodistribution; 60 min after injection,0.16 %ID/g tissue
same,"Uptake of fluorine-18-radioactivity, Muscle",Ex vivo biodistribution; 90 min after injection,0.18 %ID/g tissue
same,"Uptake of fluorine-18-radioactivity, Salivary x2","Ex vivo biodistribution; salivary x2, 5 min after injection",0.59 %ID/g tissue
same,"Uptake of fluorine-18-radioactivity, Salivary x2","Ex vivo biodistribution; salivary x2, 15 min after injection",1.34 %ID/g tissue
same,"Uptake of fluorine-18-radioactivity, Salivary x2","Ex vivo biodistribution; salivary x2, 30 min after injection",0.88 %ID/g tissue
same,"Uptake of fluorine-18-radioactivity, Salivary x2","Ex vivo biodistribution; salivary x2, 60 min after injection",1.00 %ID/g tissue
same,"Uptake of fluorine-18-radioactivity, Salivary x2","Ex vivo biodistribution; salivary x2, 90 min after injection",0.89 %ID/g tissue
same,"Uptake of fluorine-18-radioactivity, Small int. wall + contents",Ex vivo biodistribution; 5 min after injection,0.69 %ID/g tissue
same,"Uptake of fluorine-18-radioactivity, Small int. wall + contents",Ex vivo biodistribution; 15 min after injection,1.07 %ID/g tissue
same,"Uptake of fluorine-18-radioactivity, Small int. wall + contents",Ex vivo biodistribution; 30 min after injection,1.44 %ID/g tissue
same,"Uptake of fluorine-18-radioactivity, Small int. wall + contents",Ex vivo biodistribution; 60 min after injection,1.80 %ID/g tissue
same,"Uptake of fluorine-18-radioactivity, Small int. wall + contents",Ex vivo biodistribution; 90 min after injection,2.04 %ID/g tissue
same,"Uptake of fluorine-18-radioactivity, Stomach wall + contents",Ex vivo biodistribution; 5 min after injection,0.27 %ID/g tissue
same,"Uptake of fluorine-18-radioactivity, Stomach wall + contents",Ex vivo biodistribution; 15 min after injection,0.65 %ID/g tissue
same,"Uptake of fluorine-18-radioactivity, Stomach wall + contents",Ex vivo biodistribution; 30 min after injection,0.43 %ID/g tissue
same,"Uptake of fluorine-18-radioactivity, Stomach wall + contents",Ex vivo biodistribution; 60 min after injection,0.33 %ID/g tissue
same,"Uptake of fluorine-18-radioactivity, Stomach wall + contents",Ex vivo biodistribution; 90 min after injection,0.44 %ID/g tissue
same,"Uptake of fluorine-18-radioactivity, Testis",Ex vivo biodistribution; 5 min after injection,0.11 %ID/g tissue
same,"Uptake of fluorine-18-radioactivity, Testis",Ex vivo biodistribution; 15 min after injection,0.10 %ID/g tissue
same,"Uptake of fluorine-18-radioactivity, Testis",Ex vivo biodistribution; 30 min after injection,0.13 %ID/g tissue
same,"Uptake of fluorine-18-radioactivity, Testis",Ex vivo biodistribution; 60 min after injection,0.14 %ID/g tissue
same,"Uptake of fluorine-18-radioactivity, Testis",Ex vivo biodistribution; 90 min after injection,0.14 %ID/g tissue
same,Fraction of radioactivity unbound to the plasma proteins,[2],32.8 ± 8.8%
